For assay [1], the system named is collagen induced arthritis (CIA) mice. The experiment in a line: Murine collagen induced arthritis (CIA) model. Conditions: i.p., 200 μg (dexamethasone 50 μg). Type of assay: in vivo, DBA/1JLacJ mice. On the procedure: In general CIA was induced using the following protocol. Male DBA/1JLacJ mice (8-10 weeks) were injected intradermally (i.d.) at the base of the tail with […] of type II bovine collagen (CII) and complete Freund's adjuvant (CFA) at a final concentration of 4 mg/ml on Day 1. Mice were given a second injection i.d. with CII and CFA on Day 21. On days 21, 28, 35, and 42, mice were treated prophylactically with 200 μg intraperitoneal (i.p.) of the therapeutic molecules, anti-TNF-α antibody (R&D systems, cat #AB-410-NA) or D06-Fab-MSA. In addition, a control group of mice was not treated with a therapeutic molecule (“No Treatment”) and a second control group was treated with 50 μg dexamethasone i.p. every other day (e.o.d.) (“Dexamethasone”). The animals were scored every other day until the experiment was terminated on Day 46.
In a separate experiment, on days 21, 28, 35, and 42, CIA-mice were treated prophylactically with 200 μg intraperitoneal (i.p.) of either 2D9-Fab-MSA, or 5D10-Fab-MSA. In addition, a control group of mice was treated with an isotype control antibody (IgG1). The animals were scored every other day until the experiment was terminated on Day 46. Clinical scores were determined as above.
Histology was preformed to further determine the degree of inflammation as well as potential bone erosion in these animals. […]

The target in assay [2] is T1, DR3 receptor (Homo sapiens, UniProt Q93038).
T1 construct: endogenous in cells; host or cells: TF-1 (premyeloid)
T1 sequence (Q93038 25-417): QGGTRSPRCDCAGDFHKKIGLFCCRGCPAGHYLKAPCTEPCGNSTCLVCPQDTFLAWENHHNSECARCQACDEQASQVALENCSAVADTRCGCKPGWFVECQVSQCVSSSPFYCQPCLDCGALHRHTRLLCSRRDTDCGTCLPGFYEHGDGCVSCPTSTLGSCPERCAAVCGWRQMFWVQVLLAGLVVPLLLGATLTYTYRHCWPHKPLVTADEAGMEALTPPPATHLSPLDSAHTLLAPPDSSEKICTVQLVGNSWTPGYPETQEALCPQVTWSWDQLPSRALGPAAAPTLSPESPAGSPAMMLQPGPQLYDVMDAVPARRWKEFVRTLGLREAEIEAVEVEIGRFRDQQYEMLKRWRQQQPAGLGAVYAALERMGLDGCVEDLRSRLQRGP
Kind of assay: TF-1 assay (cell viability, cycloheximide, Cell Titer Glo). Type of assay: cell-based. Conditions: TF-1 cells with cycloheximide; luminescence. In general terms: ATP-based viability assays read luminescence as a measure of living cells.

In the case of `C[C@@H]1C[C@H]2[C@@H]3CCC4=CC(=O)C=C[C@]4(C)[C@@]3(F)[C@@H](O)C[C@]2(C)[C@@]1(O)C(=O)CO` [Dexamethasone], the “% Arthritis Incidence at Day 42” value in assay [1] was determined as 0%.

For “TL1A: human TL1A (TNFSF15), the natural ligand for DR3; positive control [reference compound]”, the “TF-1 cell viability / apoptosis induction (agonist, TL1A-like activity)” value in assay [2] was “induce apoptosis”.

For the origin of these results see patent publication US20120014950A1, “Antibodies That Specifically Bind to DR3” (Xencor, Inc., priority 2010, published 2012).
